A word on the IC50: it is the midpoint of a concentration-inhibition curve.

For assay [1], the target named is High affinity nerve growth factor receptor (Homo sapiens, UniProt P04629). Kind of assay: In Vitro Activity Test on TRKA, TRKB, TRKC Kinase. As to the method: (§1) Table 1: Experimental MethodThe tested compounds were subjected to 3-fold serial dilution to reach a final concentration of 1 μM to 0.05 nM (10 concentrations), duplicates for each concentration; and the DMSO concentration in the detection reaction was 1%.TRKA Enzyme Reaction:0.2 ng/μL TRKA protein kinase, 1 μM TK Substrate-biotin polypeptide substrate, 14.68 μM ATP, 1×enzymatic buffer, 5 mM MgCl2, and 1 mM DTT. The assay plate was White Proxiplate384-Plus plate (PerkinElmer), and the reaction was incubated at room temperature for 40 min, and the assay volume was 10 μL.TRKB Enzyme Reaction:0.037 ng/μL TRKB protein kinase, 1 μM TK Substrate-biotin polypeptide substrate, 4.77 μM ATP, 1× enzymatic buffer, 5 mM MgCl2, 1 mM MnCl2 and 1 mM DTT. The assay plate was White Proxiplate 384-Plus plate (PerkinElmer), the reaction was incubated at room temperature for 50 min, and the assay volume was 10 μL.TRKC Enzyme Reaction:0.037 ng/μL TRKC protein kinase, 1 μM TK Substrate-biotin polypeptide substrate, 25.64 μM ATP, 1× enzymatic buffer, 5 mM MgCl2, and 1 mM DTT. The detection plate was White Proxiplate 384-Plus plate (PerkinElmer), the reaction was incubated at room temperature for 40 min, and the assay volume was 10 μL.Detection Steps:10 μL of detection reagent (containing 0.125 μM SA-XL665 and 5 μL 1×TK-Antibody) was added to the plate and incubated overnight at room temperature. Synergy Neo 2 was used to read the plate.
Sequence of High affinity nerve growth factor receptor (P04629 whole entry): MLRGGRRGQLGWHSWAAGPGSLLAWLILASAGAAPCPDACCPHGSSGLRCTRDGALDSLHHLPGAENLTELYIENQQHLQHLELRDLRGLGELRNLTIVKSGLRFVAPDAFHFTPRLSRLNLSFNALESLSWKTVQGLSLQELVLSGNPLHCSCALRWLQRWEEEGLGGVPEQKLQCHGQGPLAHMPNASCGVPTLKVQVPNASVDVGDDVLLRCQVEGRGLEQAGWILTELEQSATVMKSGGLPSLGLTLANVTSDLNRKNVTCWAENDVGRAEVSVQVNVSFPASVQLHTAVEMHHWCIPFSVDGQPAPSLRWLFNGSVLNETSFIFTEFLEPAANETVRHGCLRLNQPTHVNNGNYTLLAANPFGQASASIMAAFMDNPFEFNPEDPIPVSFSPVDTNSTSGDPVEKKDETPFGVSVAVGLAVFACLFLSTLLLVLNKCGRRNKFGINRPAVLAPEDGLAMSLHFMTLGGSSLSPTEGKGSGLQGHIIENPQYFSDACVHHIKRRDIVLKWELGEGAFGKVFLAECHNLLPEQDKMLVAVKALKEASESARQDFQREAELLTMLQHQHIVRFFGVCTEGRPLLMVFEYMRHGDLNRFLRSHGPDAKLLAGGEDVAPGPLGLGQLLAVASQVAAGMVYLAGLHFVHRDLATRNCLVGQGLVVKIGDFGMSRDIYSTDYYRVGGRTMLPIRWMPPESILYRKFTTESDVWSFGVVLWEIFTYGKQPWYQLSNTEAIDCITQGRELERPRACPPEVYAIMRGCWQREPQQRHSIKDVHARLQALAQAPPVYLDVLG

In assay [2] the target is NT-3 growth factor receptor (Homo sapiens, UniProt Q16288). Kind of assay: In Vitro Activity Test on TRKA, TRKB, TRKC Kinase. As to the method: as §1
Sequence of NT-3 growth factor receptor (Q16288 whole entry): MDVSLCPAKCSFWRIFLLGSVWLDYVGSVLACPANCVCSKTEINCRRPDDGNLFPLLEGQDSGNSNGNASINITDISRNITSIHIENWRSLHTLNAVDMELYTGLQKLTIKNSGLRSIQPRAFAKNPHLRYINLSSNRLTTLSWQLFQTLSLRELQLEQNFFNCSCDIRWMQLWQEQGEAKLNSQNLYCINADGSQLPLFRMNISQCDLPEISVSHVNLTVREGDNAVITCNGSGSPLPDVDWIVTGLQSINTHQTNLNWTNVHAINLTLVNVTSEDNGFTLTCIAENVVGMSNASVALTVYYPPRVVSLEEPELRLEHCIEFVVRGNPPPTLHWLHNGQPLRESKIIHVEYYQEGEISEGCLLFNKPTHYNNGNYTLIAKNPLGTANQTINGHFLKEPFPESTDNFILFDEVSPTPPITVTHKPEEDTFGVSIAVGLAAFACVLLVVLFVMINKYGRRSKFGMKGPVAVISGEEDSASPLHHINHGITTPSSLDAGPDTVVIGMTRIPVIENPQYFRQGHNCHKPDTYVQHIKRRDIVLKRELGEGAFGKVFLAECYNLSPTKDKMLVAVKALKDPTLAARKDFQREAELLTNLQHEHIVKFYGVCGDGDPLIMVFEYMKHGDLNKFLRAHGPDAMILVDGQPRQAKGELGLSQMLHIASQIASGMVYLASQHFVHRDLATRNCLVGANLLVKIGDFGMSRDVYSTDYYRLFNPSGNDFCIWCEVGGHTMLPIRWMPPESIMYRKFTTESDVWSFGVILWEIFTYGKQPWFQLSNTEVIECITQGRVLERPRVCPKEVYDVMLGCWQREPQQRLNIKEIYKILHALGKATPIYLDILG
The target of assay [3] is BDNF/NT-3 growth factors receptor (Homo sapiens, UniProt Q16620). Put plainly: In Vitro Activity Test on TRKA, TRKB, TRKC Kinase. As to the method: as §1
Sequence of BDNF/NT-3 growth factors receptor (Q16620 whole entry): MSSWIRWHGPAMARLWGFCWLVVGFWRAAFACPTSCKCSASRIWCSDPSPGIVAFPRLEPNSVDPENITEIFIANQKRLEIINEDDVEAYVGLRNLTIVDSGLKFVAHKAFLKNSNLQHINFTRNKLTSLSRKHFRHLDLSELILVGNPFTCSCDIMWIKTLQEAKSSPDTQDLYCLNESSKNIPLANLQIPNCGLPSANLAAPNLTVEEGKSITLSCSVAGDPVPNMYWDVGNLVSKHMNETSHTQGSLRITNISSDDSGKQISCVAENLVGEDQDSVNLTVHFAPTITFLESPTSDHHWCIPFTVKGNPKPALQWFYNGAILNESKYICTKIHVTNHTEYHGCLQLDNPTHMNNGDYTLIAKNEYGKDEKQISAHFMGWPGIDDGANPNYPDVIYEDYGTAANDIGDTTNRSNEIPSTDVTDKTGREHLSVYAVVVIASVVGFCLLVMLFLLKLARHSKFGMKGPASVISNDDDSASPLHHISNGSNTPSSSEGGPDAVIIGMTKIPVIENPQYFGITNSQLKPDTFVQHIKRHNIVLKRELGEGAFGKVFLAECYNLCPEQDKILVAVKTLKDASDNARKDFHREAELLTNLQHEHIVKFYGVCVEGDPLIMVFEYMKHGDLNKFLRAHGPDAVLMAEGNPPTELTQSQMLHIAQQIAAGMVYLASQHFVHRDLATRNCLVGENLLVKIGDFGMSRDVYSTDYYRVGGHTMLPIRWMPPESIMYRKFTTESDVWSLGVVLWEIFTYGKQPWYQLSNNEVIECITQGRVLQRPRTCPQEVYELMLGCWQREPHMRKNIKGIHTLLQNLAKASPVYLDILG
Assay [4] concerns the target High affinity nerve growth factor receptor [G595R] (Homo sapiens, UniProt P04629, G595R). Put plainly: In Vitro Activity Test on Mutant TRKA (G595R). As for the experimental part:
Table 3: Experimental MaterialsThe recombinant human TRKA (G595R), TRKA (G667C) and TRKC (G623R) proteins were purchased from SignalChem. HTRF kinEASE TK kit was purchased from Cisbio Bioassays. Synergy Neo 2 of Biotek was used to read the plate. TRKA (G595R) Enzyme Reaction:0.12 ng/μL TRKA (G595R) kinase, 1 μM TK Substrate-biotin polypeptide substrate, 4.5 μM ATP, 1× enzymatic buffer, 5 mM MgCl2, and 1 mM DTT. The assay plate was White Proxiplate384-Plus plate (PerkinElmer), and the reaction was incubated at room temperature for 30 min, and the assay volume was 10 μL. Detection Steps:10 μL of detection reagent (containing 0.125 μM SA-XL665 and 5 μL 1×TK-Antibody) was added to the plate and incubated overnight at room temperature, and Synergy Neo 2 was used to read the plate.

Where only a bound is given, the exact number is not on record here.

Sequence of High affinity nerve growth factor receptor [G595R] (P04629 33-796 G595R limits assumed): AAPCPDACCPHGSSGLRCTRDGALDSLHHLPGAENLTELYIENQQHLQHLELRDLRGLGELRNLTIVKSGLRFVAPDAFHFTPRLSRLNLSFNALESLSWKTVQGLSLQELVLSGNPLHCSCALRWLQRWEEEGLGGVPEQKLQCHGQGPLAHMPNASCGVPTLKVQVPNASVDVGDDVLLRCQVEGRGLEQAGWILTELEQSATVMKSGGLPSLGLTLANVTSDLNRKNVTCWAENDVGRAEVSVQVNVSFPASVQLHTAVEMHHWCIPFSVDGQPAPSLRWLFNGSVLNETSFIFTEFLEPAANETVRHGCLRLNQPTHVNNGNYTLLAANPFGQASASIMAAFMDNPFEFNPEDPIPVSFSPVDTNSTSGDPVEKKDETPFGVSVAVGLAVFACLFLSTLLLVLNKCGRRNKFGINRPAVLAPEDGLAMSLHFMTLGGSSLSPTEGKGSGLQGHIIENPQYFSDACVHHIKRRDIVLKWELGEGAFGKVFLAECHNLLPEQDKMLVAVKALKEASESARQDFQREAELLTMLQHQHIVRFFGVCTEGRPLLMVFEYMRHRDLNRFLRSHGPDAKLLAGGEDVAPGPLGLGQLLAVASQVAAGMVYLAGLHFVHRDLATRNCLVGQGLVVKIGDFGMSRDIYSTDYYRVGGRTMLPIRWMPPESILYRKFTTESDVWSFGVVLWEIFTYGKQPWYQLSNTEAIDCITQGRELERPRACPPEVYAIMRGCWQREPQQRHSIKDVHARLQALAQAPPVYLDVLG

Regarding `CNC(=O)c1cnc2[nH]nc(N3CCC[C@@H]3c3cc(F)ccc3F)c2c1` [US12391687, Example 7], the IC50 in assay [1], in assay [2] and in assay [3] was under 10 nM in each case.

For the compound `O=C(Nc1cnc2[nH]nc(N3C[C@@H](F)C[C@@H]3c3cc(F)ccc3F)c2c1)c1ccc(N2CC[C@H](O)C2)nc1` [US12391687, Example 11], the IC50 in assay [4] is under 10 nM; in assay [2], under 10 nM; in assay [3] it was under 1 nM.

Take `NC(=O)CCNC(=O)c1cnc2[nH]nc(N3CCC[C@@H]3c3cc(F)ccc3F)c2c1` [US12391687, Example 15]: the IC50 in assay [1], in assay [2] and in assay [3] was under 10 nM each time.

In the case of `Fc1ccc(F)c([C@H]2C[C@H](F)CN2c2n[nH]c3ncc(-c4cnn(C5CNC5)c4)cc23)c1` [US12391687, Example 26], the concentration for half-maximal inhibition (IC50) in assay [1], in assay [2] and in assay [3] was under 1 nM throughout.

For `CC(C)OCc1nnc(-c2cnc3[nH]nc(N4C[C@@H](F)C[C@@H]4c4cc(F)ccc4F)c3c2)o1` [US12391687, Example 42], the IC50 in assay [1], in assay [2] and in assay [3] was under 1 nM throughout.

The values are drawn from BindingDB's records for patent US12391687 (Shanghai Ennovabio Pharmaceuticals, 2025).
